Measured values as given in patent publication US11219663B2, “Composition containing cyclic dipeptide and sweetening agent” (SUNTORY HOLDINGS LIMITED, priority 2015, dated 2022).
Where a SMILES comes first, the peptide text is derived from it.

Tested on: NCI-H716 cells
Assay: Active GLP-1 secretion amount of NCI-H716 cells cultured for one hour with the sample (ELISA)
Assay type: cell-based, Human
Details: for Amount of active GLP-1, relative value (control regarded as 100), average value / Amount of Active GLP-1 (relative amount to control as 100), average value: 1 h
Text: As cyclic dipeptides: cyclo(glycyl-tyrosine) [Cyclo(Gly-Tyr)] (CGY) and cyclo(leucyl-phenylalanine) [Cyclo(Leu-Phe)] (CLF), and chemical synthesized preparations were used. Poly-L-Lysine 96-well plates were obtained from Becton Dickinson (BD). PBS (+), an antibiotic substance, Dulbecco's Modified Eagle's Medium (DMEM) and glucose used herein were obtained from Nacalai Tesque Inc.; sucralose, acesulfame potassium and aspartame from Wako Pure Chemical Industries Ltd.; active GLP-1 ELISA kit from Merck Millipore, Fetal bovine serum (FBS) from Sigma; and Sitagliptin phosphate from SantaCruz Biotechnology. Human intestinal cell strain, NCI-H716 cells used herein were provided by ATCC.
NCI-H716 cells, which were suspended in DMEM culture medium (containing 10% FBS, 2 mM glutamine, 1% antibiotic substance), were seeded in Poly-L-Lysine 96-well plates in an amount of 100 μL for each so as to contain 0.5×10^5 cells/well and cultured in a CO2 incubator (manufactured by ESPEC CORP.) for 48 hours.
Sweetening agent solutions were prepared each by adding a sweetening agent to PBS (+). In the case of glucose, a concentration was set at 3%, sucralose at 0.6%, acesulfame potassium at 0.3%, and aspartame at 0.3%. A cyclic dipeptide was dissolved in DMSO and then added to each of sweetening agent solutions so as to obtain final concentrations shown in Table 1 and Table 2. Note that, all cell addition solutions were prepared such that DMSO (0.1%) and a 10 μM Sitagliptin phosphate were contained.
After the cells were washed once with PBS (+), a reaction solution was added to the cells. One hour later, the solution added was recovered. Thereafter, the amount of active GLP-1 in the solution recovered was measured by using the ELISA kit. Analysis was carried out using relative values to the amount of active GLP-1 (regarded as 100) in a (sample) group to which neither sweetening agent nor cyclic dipeptide were added.
NCI-H716 cells, which were suspended in DMEM culture medium (containing 10% FBS, 2 mM glutamine, 1% antibiotic substance) were seeded in Poly-L-Lysine 96-well plates in an amount of 100 μL for each so as to contain 0.5×10^5 cells/well and cultured in an CO2 incubator (manufactured by ESPEC CORP.) for 48 hours. After the cells were washed with PBS (+), a PBS (+) solution already containing 10 μM Sitagliptin phosphate was controlled such that the final concentration of stevioside or RebA was 0.01%, and the final concentration of Cyclo(Leu-Phe) was 0.02 μg/mL or 2 μg/mL. The PBS (+) solution (100 μL) was individually added to the NCI-H716 cells. One hour later, the solution added was recovered and the amount of active GLP-1 in the solution was measured by the ELISA kit. Analysis was carried out based on relative values to the amount of active GLP-1 (regarded as 100) in a (sample) group to which neither a steviol glycoside not Cyclo(Leu-Phe) were added
The experiment was carried out in accordance with Example 2. A PBS (+) solution already containing 10 μM Sitagliptin phosphate was controlled such that the final concentration of RebD was 0.01%, and the final concentration of Cyclo(Gly-Tyr) was 0.01 μg/mL or 1 μg/mL. The PBS (+) solution (100 μL) was individually added to the NCI-H716 cells.
NCI-H716 cells, which were suspended in DMEM culture medium (containing 10% FBS, 2 mM glutamine, 1% antibiotic substance), were seeded in Poly-L-Lysine 96-well plates in an amount of 100 μL for each so as to add 0.5×10^5 cells/well and cultured in an CO2 incubator (manufactured by ESPEC CORP.) for 48 hours. After the cells were washed with PBS (+), a PBS (+) solution already containing 10 μM Sitagliptin phosphate was controlled such that the final concentration of stevioside, RebA or RebB was 0.001, 0.01 or 0.1%. The PBS (+) solution (100 μL) controlled such that the final concentration of RebC or RebD was 0.001 or 0.01% was added to the cells.

[1] = Example 4, steviol glycoside alone, 0.001 to 0.1% (RebC, RebD 0.001 or 0.01%)
[2] = Table 3, steviol glycoside 0.01% alone
[3] = Table 4, steviol glycoside 0.01% alone
[4] = Table 5, final concentration 0.001%
[5] = Table 5, final concentration 0.01%
[6] = Table 5, final concentration 0.1%
[7] = steviol glycoside alone at a concentration of 0.01%

| Compound | GLP-1 secretion-accelerating action (in words) [1] | Amount of Active GLP-1 (relative amount to control as 100), average value [4] | Amount of Active GLP-1 (relative amount to control as 100), average value [5] | Amount of Active GLP-1 (relative amount to control as 100), average value [6] | GLP-1 secretion-accelerating action (in words) [7] | further results |
| --- | --- | --- | --- | --- | --- | --- |
| CC1=CC(=O)NS(=O)(=O)O1 [Acesulfame K, acesulfame potassium] | – | – | – | – | – | Amount of active GLP-1, relative value (control regarded as 100), average value (Table 1, acesulfame K 0.3% alone): 125; Amount of active GLP-1, relative value (control regarded as 100), average value (Table 2, acesulfame K 0.3% alone): 145 |
| COC(=O)[C@H](Cc1ccccc1)NC(=O)[C@@H](N)CC(=O)O [Aspartame, aspartame] (H-Asp-Phe-OMe) | – | – | – | – | – | Amount of active GLP-1, relative value (control regarded as 100), average value (Table 1, aspartame 0.3% alone): 112; Amount of active GLP-1, relative value (control regarded as 100), average value (Table 2, aspartame 0.3% alone): 129 |
| C=C1C[C@@]23CC[C@H]4[C@@](C)(CCC[C@@]4(C)C(=O)O[C@@H]4O[C@H](CO)[C@@H](O)[C@H](O)[C@H]4O)[C@@H]2CC[C@]1(O[C@@H]1O[C@H](CO)[C@@H](O)[C@H](O[C@@H]2O[C@H](CO)[C@@H](O)[C@H](O)[C@H]2O)[C@H]1O[C@@H]1O[C@H](CO)[C@@H](O)[C@H](O)[C@H]1O)C3 [RebA, rebaudioside A] | GLP-1 secretion-accelerating action can be obtained | 92.8 | 129.3 | 150.9 | not accelerated | Amount of Active GLP-1 (relative amount to control as 100), average value [2]: 72.6; Amount of Active GLP-1 (relative amount to control as 100), average value [3]: 72.6 |
| C=C1C[C@@]23CC[C@H]4[C@@](C)(CCC[C@@]4(C)C(=O)O[C@@H]4O[C@H](CO)[C@@H](O)[C@H](O)[C@H]4O[C@@H]4O[C@H](CO)[C@@H](O)[C@H](O)[C@H]4O)[C@@H]2CC[C@]1(O[C@@H]1O[C@H](CO)[C@@H](O)[C@H](O[C@@H]2O[C@H](CO)[C@@H](O)[C@H](O)[C@H]2O)[C@H]1O[C@@H]1O[C@H](CO)[C@@H](O)[C@H](O)[C@H]1O)C3 [RebD, rebaudioside D] | GLP-1 secretion-accelerating action can be obtained | 63.1 | 170.0 | – | not accelerated | – |
| C=C1C[C@@]23CC[C@H]4[C@@](C)(CCC[C@@]4(C)C(=O)O[C@@H]4O[C@H](CO)[C@@H](O)[C@H](O)[C@H]4O)[C@@H]2CC[C@]1(O[C@@H]1O[C@H](CO)[C@@H](O)[C@H](O)[C@H]1O[C@@H]1O[C@H](CO)[C@@H](O)[C@H](O)[C@H]1O)C3 [Stevioside, stevioside] | GLP-1 secretion-accelerating action can be obtained | 104.9 | 91.3 | 160.9 | not accelerated | Amount of Active GLP-1 (relative amount to control as 100), average value [2]: 62.7; Amount of Active GLP-1 (relative amount to control as 100), average value [3]: 62.7 |
| OC[C@H]1O[C@H](O[C@]2(CCl)O[C@H](CCl)[C@@H](O)[C@@H]2O)[C@H](O)[C@@H](O)[C@H]1Cl [Sucralose, sucralose] | – | – | – | – | – | Amount of active GLP-1, relative value (control regarded as 100), average value (Table 1, sucralose 0.6% alone): 206; Amount of active GLP-1, relative value (control regarded as 100), average value (Table 2, sucralose 0.6% alone): 233 |
| cyclo(glycyl-tyrosine) [Cyclo(Gly-Tyr)] | – | – | – | – | – | Amount of Active GLP-1 (relative amount to control as 100), average value (Table 4, Cyclo(Gly-Tyr) 0.01 μg/mL alone): 65.1 |
| cyclo(leucyl-phenylalanine) [Cyclo(Leu-Phe)] | – | – | – | – | – | Amount of Active GLP-1 (relative amount to control as 100), average value (Table 3, Cyclo(Leu-Phe) 0.02 μg/mL alone): 65.1; Amount of Active GLP-1 (relative amount to control as 100), average value (Table 3, Cyclo(Leu-Phe) 2 μg/mL alone): 59.9; Amount of Active GLP-1 (relative amount to control as 100), average value (Table 4, head prints Cyclo(Leu-Phe) 1 μg/mL alone): 59.9 |
| rebaudioside B [RebB] | GLP-1 secretion-accelerating action can be obtained | 82.0 | 70.5 | 151.2 | – | – |
| rebaudioside C [RebC] | GLP-1 secretion-accelerating action was not observed | 52.8 | 55.0 | – | – | – |
